Source: patent publication US10568913B2, “Method for generating mature β-like cells” (The University of Western Australia, priority 2013, dated 2020)

Experiments:
[1] = system: Ngn3+ progenitor-containing E-cad+ cells; test: Insulin-producing (MIPGFP+) cell differentiation from sorted E-cad+ cells of E15.5 MIPGFP mouse pancreas; type: cell-based; conditions: for effect on Nic-induced differentiation: co-culture with Nic 10 mM (FIG. 1g, 5, 13, 15); for promotion of MIPGFP+ insulin-producing cell differentiation by the molecule on its own: compound alone, without Nic, day 4 (FIG. 1g, 5a)
Experimental: Approximately 7,500 E15.5 [at which the number of Ngn3^+ progenitors is peaked] mouse fetuses from both MIPGFP and Ngn3-GPF/RIP-DsRed lines were used for enrichment/purification of Ngn3^+ progenitors. Mouse pancreases were dissected under a stereoscope (Olympus, Tokyo, Japan). Eleven human fetal pancreases were collected from 18-22 week-fetuses (Table 1) and minced. Both mouse and human pancreases were enzymatically dissociated into single cells under aseptic conditions. […] After each incubation with antibodies, cells were washed twice with FACS buffer (0.1% bovine serum albumin in phosphate buffered saline) and finally re-suspended in this buffer containing 1 μg/ml propidium iodide (PI) or 4′,6-diamidino-2-phenylindole (DAPI) for sorting (FACSAria II, Becton Dickson Labware, Bedford). The purity of sorted cells was determined by post-sort analysis.
Sorted β-cell progenitor-enriched cells or Ngn3^+ β-cell progenitors were differentiated in 96-, 12- or 6-well plates (BD Labware). […] Growth factor-reduced Matrigel (200 μg/ml, BD Biosciences) was overlayed onto cells in the presence of various potential regulators. Thyrotropin releasing hormone (TRH, 100 nM) was purchased from Auspep (Melbourne, Australia). […] Cultures were incubated in 10% CO2 90% air at 37° C., for up to 8 days.
The number of β-like cells was directly quantified under a fluorescence microscope. To verify the accuracy of cell count, at least five randomly chosen fields per well were microphotographed under the inverse IX71 Olympus fluorescence microscope (Olympus, Tokyo, Japan) and the number of β-like cells determined with the Image Pro Plus software installed in the computer.

[2] = system: MIN6 cells; test: Glucose stimulated insulin secretion in highly passaged MIN6 cells; type: cell-based, mouse; conditions: FIG. 20, 21
Experimental: The differentiated cells were washed twice with warm PBS. After pre-incubation with Krebs-Ringer buffer at 37° C. for 90 min, the cells were incubated at 37° C. for 60 min with basal D-glucose (2.75 mM) or stimulus D-glucose (27.5 mM). Then each conditioned medium was collected to determine the insulin concentration using an insulin ELISA kit (Mercodia AB, Uppsala, Sweden). MIN6 cells were routinely maintained in a published protocol which contains Dulbecco's modified Eagle's medium (DMEM) containing 25 mM glucose, supplemented with 10% fetal calf serum, 2 mM L-glutamine, 25 mM Hepes, and 285 μM 2-mercaptoethanol. MIN6 cells presented in this study were at passages 30-40 (low passage, LP) or passages 60-70 (high passage, HP). All assays used MIN6 grown to 70-80% confluence unless otherwise stated.

[3] = system: human islet progenitors (population III); test: Differentiation of FACS-enriched human fetal islet progenitors, immunofluorescence for insulin and glucagon; type: cell-based; conditions: 6 days, 10 mM Nic
Text: Approximately 7,500 E15.5 [at which the number of Ngn3^+ progenitors is peaked] mouse fetuses from both MIPGFP and Ngn3-GPF/RIP-DsRed lines were used for enrichment/purification of Ngn3^+ progenitors. Mouse pancreases were dissected under a stereoscope (Olympus, Tokyo, Japan). Eleven human fetal pancreases were collected from 18-22 week-fetuses (Table 1) and minced. Both mouse and human pancreases were enzymatically dissociated into single cells under aseptic conditions. Rat anti-E-cadherin (E-cad, also known as CD324 or uvomorulin) monoclonal antibody IgG2a (Invitrogen, Carlsbad), Alexa Fluor 647 anti-E-cad (eBioscience), rat anti-integrin α6 subunit (α6, also known as CD49f) mAb IgG2a, phycoerythrin (PE) rat anti-human α6 (Becton Dickson Biosciences, San Jose), PE anti-mouse CD133 (also known as prominin I, eBioscience), biotin rabbit anti-rat immunoglobumins, allophycocyanin (APC) rat anti-mouse CD45 and APC rat anti-mouse TER119 and streptavidin APC-Cy7, streptavidin PE-Texas Red, streptavidin APC (BD Biosciences) or streptavidin Alexa Fluor 750 (Invitrogen), were used. […] The purity of sorted cells was determined by post-sort analysis. […]

[4] = system: Ngn3+ islet progenitors; test: DsRed+ cell differentiation from purified Ngn3-GFP+ progenitors (Ngn3-GFP/RIP-DsRed mice); type: cell-based, mouse
Text: Approximately 7,500 E15.5 [at which the number of Ngn3^+ progenitors is peaked] mouse fetuses from both MIPGFP and Ngn3-GPF/RIP-DsRed lines were used for enrichment/purification of Ngn3^+ progenitors. Mouse pancreases were dissected under a stereoscope (Olympus, Tokyo, Japan). Eleven human fetal pancreases were collected from 18-22 week-fetuses (Table 1) and minced. Both mouse and human pancreases were enzymatically dissociated into single cells under aseptic conditions. Rat anti-E-cadherin (E-cad, also known as CD324 or uvomorulin) monoclonal antibody IgG2a (Invitrogen, Carlsbad), Alexa Fluor 647 anti-E-cad (eBioscience), rat anti-integrin α6 subunit (α6, also known as CD49f) mAb IgG2a, phycoerythrin (PE) rat anti-human α6 (Becton Dickson Biosciences, San Jose), PE anti-mouse CD133 (also known as prominin I, eBioscience), biotin rabbit anti-rat immunoglobumins, allophycocyanin (APC) rat anti-mouse CD45 and APC rat anti-mouse TER119 and streptavidin APC-Cy7, streptavidin PE-Texas Red, streptavidin APC (BD Biosciences) or streptavidin Alexa Fluor 750 (Invitrogen), were used. After each incubation with antibodies, cells were washed twice with FACS buffer (0.1% bovine serum albumin in phosphate buffered saline) and finally re-suspended in this buffer containing 1 μg/ml propidium iodide (PI) or 4′,6-diamidino-2-phenylindole (DAPI) for sorting (FACSAria II, Becton Dickson Labware, Bedford). The purity of sorted cells was determined by post-sort analysis. Data presented represented cell samples with over 90% purity.
Sorted β-cell progenitor-enriched cells or Ngn3^+ β-cell progenitors were differentiated in 96-, 12- or 6-well plates (BD Labware). The basal differentiation medium is Dulbecco's Modified Eagle Medium (Invitrogen) with 5.75 or 27.5 mM D-glucose supplemented with 1% B27 (Invitrogen) and 100 μg/ml streptomycin and 100 units/ml penicillin. Growth factor-reduced Matrigel (200 μg/ml, BD Biosciences) was overlayed onto cells in the presence of various potential regulators. […]
The number of β-like cells was directly quantified under a fluorescence microscope. […]

| Molecule | effect on Nic-induced differentiation [1] | promotion of MIPGFP+ insulin-producing cell differentiation by the molecule on its own [1] | further results |
| --- | --- | --- | --- |
| 6-chloro-2,3,4,9-tetrahydro-1H-carbazo-1-carboxamide [EX527] | did reduce Nic-induced differentiation | did not significantly promote differentiation | – |
| O=C1Nc2cc(Br)ccc2/C1=C1/Nc2ccccc2/C1=N\O [BIO, (2′Z,3′E)-6-bromoindirubin-3′-oxime] | suppressed or abolished | did not yield | – |
| C[C@H](NC(=O)Cc1cc(F)cc(F)c1)C(=O)N[C@H](C(=O)OC(C)(C)C)c1ccccc1 [DAPT] | – | did not yield | – |
| NC(=O)c1ccncc1 [INic, isonicotinamide] | – | – | number of MIPGFP+ cells compared to Nic ([1]; INic 10 mM alone, days 4, 6 and 8): approximately half |
| NC(=O)c1cccnc1 [Nic, pyridine-3-carboxylic acid amide] | – | – | glucose stimulated insulin secretion (GSIS) in dedifferentiated, highly passaged MIN6 cells [2]: regain partial GSIS; number of MIPGFP+ cells, fold more in the presence of Nic ([1]; Nic 10 mM, serum-free and feeder-free culture (FIG. 1c,d)): at least 17 fold; α and β cells detected immunochemically in cultured population III [3]: numerous single hormone-positive α and β cells; number of differentiated DsRed+ cells, share of optimal levels ([4]; Nic added at 24 hr after plating, counted at day 4): approximately 40%; DsRed+ cells, share of all cells by FACS ([4]; day 4 of culture, 0% at the start): 35% |
| O=C(O)C(Cc1c[nH]c2ccccc12)N1C(=O)c2ccccc2C1=O (stereo not drawn) [RG-108, α-(1,3-dihydro-1,3-dioxo-2H-isoindo1-2-yl)-1H-indole-3-propanoic acid] | – | did not yield | – |
| NC(=O)[C@@H]1CCCN1C(=O)[C@H](Cc1cnc[nH]1)NC(=O)[C@@H]1CCC(=O)N1 [TRH, Thyrotropin releasing hormone] | – | did not yield | – |
| COc1cc(/C=C/C(=O)CC(=O)/C=C/c2ccc(O)c(OC)c2)ccc1O [curcumin, (E, E)-1,7-bis (4-hydroxy-3-methoxyphenyl)-1,6-heptadiene-3,5-dione] | significantly reduced | – | – |
| NC(=O)c1ccc[n+]([C@@H]2O[C@H](COP(=O)([O-])O)[C@@H](O)[C@H]2O)c1 [nicotinamide mononucleotide, β-nicotinamide mononucleotide] | did not modify | – | – |
| O=c1c(O)c(-c2ccc(O)c(O)c2)oc2cc(O)cc(O)c12 [quercetin] | suppressed or abolished | did not yield | – |
| Oc1ccc(/C=C/c2cc(O)cc(O)c2)cc1 [resveratrol, 5-[(1E)-2-(4-hydroxyphenyl)ethenyl]-1,3-benzenediol] | completely abolished | – | cellular viability ([1]; in combination with Nic): without apparently affecting cellular viability |
| CCCC(=O)[O-].[Na+] [sodium butyrate] | significantly (p<0.05) reduced | – | – |
| CC(=O)C(=O)[O-].[Na+] [sodium pyruvate] | significantly inhibited | – | – |
| CC(/C=C/C(=O)NO)=C\[C@@H](C)C(=O)c1ccc(N(C)C)cc1 [trichostatin A] | significantly (p<0.05) reduced | – | – |
| C[C@H](NC(=O)Cc1cc(F)cc(F)c1)C(=O)N[C@H]1N=C(c2ccccc2)c2ccccc2N(C)C1=O [γ-secretase inhibitor XXI] | – | did not yield | – |
| CC(C)C[C@H](NC(=O)[C@H](Cc1ccccc1)C[C@@H](O)[C@H](Cc1ccccc1)NC(=O)OC(C)(C)C)C(=O)N[C@@H](Cc1ccccc1)C(N)=O [γ-secretase inhibitor X] | – | did not yield | – |
| exendin-4 [Ex4] | – | did not yield | – |
